Patent EP4644391A1, “NOVEL PHENYLQUINOLONE COMPOUND HAVING ANTIBACTERIAL AND ANTICANCER FUNCTIONS, AND PREPARATION THEREOF” (Alphamol Science Ltd (Shanghai), priority 2022, dated 2024)
In brackets after ≈: the same amount, converted by molar mass. Where two headings read alike, the source gives them in different places.

What was measured:
Type in all cases: cell-based
[1] = test system: A. baumannii ATCC 17978; assay: In vitro antibacterial activity assay (MIC, broth dilution); conditions: Acinetobacter baumannii, ATCC17978; Table 2; 37°C, 16 hours; read-out: G- bacteria MIC A. baumannii ATCC 17978
Excerpt: (§1) The method used to indicate the activity of the compounds in this example is to record the minimum inhibitory concentration (MIC) of the compounds against bacteria. The specific experimental method is as follows: • 1. The bacterial liquid cultured from a single colony was taken, and diluted into autoclaved CAMHB broth in a ratio of 1:1000, and mixed well. • 2. The prepared drug solution was filtered through a sterile 0.22µm syringe filter and placed in a sterile EP tube for later use. • 3. A 96-well plate was taken, and 20µL of drug solution (400µg/mL) was added to each well in the first column of the 96-well plate. Then, 180µL of diluted bacterial liquid was added and mixed well (Perform 3 replicate rows for each drug). The same process was performed for the hydrochloride drug. • 4. 100 µL of diluted bacterial liquid was added to each well in the remaining 11 columns of the 96-well plate. Drugs are the same as above. • 5. Serial dilution: 100µL of liquid was taken from the first column to the second column, mixed well, then 100µL of liquid was taken from the second column to the third column, mixed well, and so on, sequentially diluting down to the last column (column 12). After mixing column 12 well, 100µL of liquid thereof was discarded. The drug concentration in each well was decreased by two-fold serially (the concentration in the first well is 40µg/mL). • 6. Blank CAMHB broth without added bacteria liquid was added to 3 blank wells in the 96-well plate, as negative control. • 7. The diluted bacterial liquid was added to 3 blank wells in the 96-well plate, as positive control. • 8. Incubated at 37°C for 16 hours. • 9. Results reading: the minimum inhibitory concentration is the minimum drug concentration at which no bacterial growth is visible to the naked eye and without turbidity.

[2] = test system: E. coli ATCC 25922; assay: as above; conditions: Escherichia coli, ATCC25922
Excerpt: as §1

[3] = test system: P.aeruginosa ATCC 27853; assay: as above; conditions: Pseudomonas aeruginosa, ATCC27853; Table 2; 37°C, 16 hours; read-out: G- bacteria MIC P.aeruginosa ATCC 27853
Excerpt: as §1

[4] = test system: S. aureus ATCC 43300; assay: as above; conditions: Staphylococcus aureus
Excerpt: as §1

[5] = test system: E. feacium ATCC 700221; assay: as above; conditions: read-out: G+ bacteria MIC E. feacium ATCC 700221
Excerpt: as §1

[6] = test system: Hela; assay: In vitro anticancer activity test (MTT cell proliferation assay); conditions: Homo sapiens, average proliferation inhibition rate at the dosage of 40 µM
Method: The anticancer activity of the compounds was tested using an in vitro cancer cell tests. The specific test method is as follows: • 1. Cell recovery and culture method: the cryovial was taken out from the liquid nitrogen container firstly, soaked directly in 37°C warm water, and shaked from time to time to let it thaw as soon as possible. Then, the cryovial was transferred to a clean bench, and the lid was open. The cell suspension was taken into a centrifuge tube using a rubber-tipped dropper and more than 10 times the culture medium was added, mixed well, and centrifuged at 50g for 5 minutes. Then, the supernatant was discarded, complete culture medium containing 10% fetal bovine serum was added to resuspend the cells, the cells was counted, the cell density was adjusted, and then inoculated into a culture bottle. The culture bottle was placed in a cell culture incubator at 5% CO2 and 37°C. The complete culture medium was replaced once the next day and the culture was continued. • 2. Cell passaging method: adherent cells in the logarithmic growth phase were placed in a clean bench, the original culture medium was discarded, and washed three times with 1×PBS. An appropriate amount of 0.25% trypsin digestion solution was added to moisten the cells, and then the trypsin solution was aspirated. The cells were placed in a cell culture incubator at 5% CO2 and 37°C for digestion for a suitable time, and observed under a microscope. When 90% of the cells become round, the cells were moved immediately to the clean bench and complete culture medium was added to terminate digestion. Then, the cells were dislodged by pipetting up and down with a rubber-tipped dropper to single cells. The cells were counted, and the cell density was adjusted. The cells were inoculated into a suitable culture bottle or dish, added enough complete culture medium, and placed in a cell culture incubator at 5% CO2 and 37°C for static culture. For suspension cells in the logarithmic phase, the original culture medium was directly centrifuged at 50g for 5 minutes, the supernatant was discarded, and the cells were washed once with PBS and centrifuged. After discarding the supernatant, the complete culture medium was added and the cells were dispersed using a rubber-tipped dropper. The cells are counted, and the cell density was adjusted. The cells were inoculated into appropriate culture bottles or culture dishes, and sufficient complete culture medium was added, and the cells were cultured in a cell culture incubator at 5% CO2 and 37°C. • 3. Cell proliferation assay: cells in good state in logarithmic phase were taken and appropriate amount of the cells was inoculated into 96-well plates according to the cell passage treatment method, with each well containing 180 µL complete medium. After the cells growth was recovered and the number of cells in each well is 5000±500, a drug was added for treatment. After drug treatment during the experimental time, MTT solution with a final concentration of 0.5 mg/mL was added to each well, and placed in a cell culture incubator at 5% CO2 and 37°C to allow a fully reaction of MTT with cells. After 4 hours, the solution in the 96-well plate was discarded, 100 µL of DMSO was added, and shaked to dissolve the formazan precipitated at the bottom of the plate, and the absorbance value of samples was detected at a wavelength of 570 nm using a microplate reader. Calculation method of cell viability rate: Viability rate = A sample group÷A control group × 100% [formula] • 4. Cell photography step: cells in good state in logarithmic phase were taken and an appropriate amount of cells was inoculated into 96-well plates according to the cell passage treatment method, with each well containing 180 µL complete medium. After the cells growth was recovered and the number of cells in each well is 5000 ± 500, a drug was added for treatment. […]

[7] = Table 2, 37°C, 16 hours, read-out: G- bacteria MIC E. coli ATCC 25922
[8] = ATCC43300, Table 1, 37°C, 16 hours, read-out: G+ bacteria MIC S. aureus ATCC 43300
[9] = Table 3, read-out: E. coli ATCC 25922 MIC
[10] = ATCC43300, Table 3, read-out: S. aureus ATCC 43300 MIC

SMILES | MIC [1] [µg/mL] | MIC [2, 7] [µg/mL] | MIC [3] [µg/mL] | MIC [4, 8] [µg/mL] | MIC ([5]; Table 1, 37°C, 16 hours) [µg/mL] | inhibition at 40 µM [6] [%] | MIC [2, 9] [µg/mL] | MIC [4, 10] [µg/mL] | other results
NS(=O)(=O)c1ccc(-c2c(F)cc3c(=O)c(C(=O)O)cn(C4CC4)c3c2Cl)cc1[N+](=O)[O-] [Example 4, 8-chloro-1-cyclopropyl-6-fluoro-7-(3-nitro-4-sulfamoyphenyl)-4-oxo-1,4-dihydroquinolin-3-carboxylic acid] | 0.1 to 1 (≈ 0.208 to 2.08 µM) | ≤ 0.1 | 0.1 to 1 (≈ 0.208 to 2.08 µM) | ≤ 0.1 | 1 to 8 (≈ 2.08 to 16.6 µM) | – | – | – | –
N#Cc1cc(-c2cc3c(cc2F)c(=O)c(C(=O)O)cn3C2CC2)ccc1S(=O)(=O)NC1CCOCC1 [Example 5, 7-(3-cyano-4-(N-(tetrahydro-2H-pyran-4-yl)sulfamoyl)phenyl)-1-cyclopropyl-6-fluoro-4-oxo-1,4-dihydroquinolin-3-carboxylic acid] | ≤ 0.1 | ≤ 0.1 | 0.1 to 1 (≈ 0.195 to 1.95 µM) | ≤ 0.1 | 1 to 8 (≈ 1.95 to 15.6 µM) | – | – | – | –
O=C(O)c1cn(C2CC2)c2cc(-c3ccc(S(=O)(=O)NCCCl)cc3)c(F)cc2c1=O [Example 10, 7-(4-(N-(2-chloroethyl)sulfamoyl)phenyl)-1-cyclopropyl-6-fluoro-4-oxo-1,4-dihydroquinolin-3-carboxylic acid] | – | – | – | – | – | – | – | – | MIC ([4]; ATCC43300, 16 h, read-out: G+ bacteria MIC S. aureus ATCC 43300): ≤ 0.1 µg/mL; MIC ([5]; 16 h): > 8 µg/mL
CCCCCCCNS(=O)(=O)c1ccc(-c2cc3c(cc2F)c(=O)c(C(=O)O)cn3-c2ccc(F)cc2)cc1 [Example 12, 6-fluoro-1-(4-fluorophenyl)-7-(4-(N-heptylsulfamoyl)phenyl)-4-oxo-1,4-dihydroquinolin-3-carboxylic acid] | – | – | – | – | – | ≥ 50 | ≥ 1 | ≤ 1 | –
O=C(O)c1cn(C2CC2)c2cc(-c3ccc(S(=O)(=O)NCCO)cc3)c(F)cc2c1=O [Example 13, 1-cyclopropyl-6-fluoro-7-(4-(N-(2-hydroxyethyl)sulfamoyl)phenyl)-4-oxo-1,4-dihydroquinolin-3-carboxylic acid] | 0.1 to 1 (≈ 0.224 to 2.24 µM) | ≤ 0.1 | 0.1 to 1 (≈ 0.224 to 2.24 µM) | ≤ 0.1 | 1 to 8 (≈ 2.24 to 17.9 µM) | – | – | – | –
CCCNS(=O)(=O)c1ccc(-c2c(F)cc3c(=O)c(C(=O)O)cn(C4CC4)c3c2Cl)cn1 [Example 15, 8-chloro-1-cyclopropyl-6-fluoro-4-oxo-7-(6-(N-propylsulfamoyl)pyridin-3-yl)-1,4-dihydroquinolin-3-carboxylic acid] | – | – | – | ≤ 0.1 | > 8 | – | – | – | –
CCCCCCCNS(=O)(=O)c1ccc(-c2cc3c(cc2F)c(=O)c(C(=O)O)cn3-c2ccc(F)cn2)cc1 [Example 19, 6-fluoro-1-(5-fluoropyridin-2-yl)-7-(4-(N-heptylsulfamoyl)phenyl)-4-oxo-1,4-dihydroquinolin-3-carboxylic acid] | – | – | – | – | – | ≥ 50 | ≥ 1 | ≤ 1 | –
COc1c(-c2ccc(NC(=O)C(F)(F)F)c([N+](=O)[O-])c2)c(F)cc2c(=O)c(C(=O)O)cn(C3CC3)c12 [Example 30, 1-cyclopropyl-6-fluoro-8-methoxy-7-(3-nitro-4-(2,2,2-triifluoroacetamido)phenyl)-4-oxo-1,4-dihydroquinolin-3-carboxylic acid] | 0.1 to 1 (≈ 0.196 to 1.96 µM) | ≤ 0.1 | 0.1 to 1 (≈ 0.196 to 1.96 µM) | – | – | – | – | – | –
O=C(O)c1cn(C2CC2)c2c([N+](=O)[O-])c(-c3ccc(NC(=O)C(F)(F)F)c([N+](=O)[O-])c3)c(F)cc2c1=O [Example 32] | – | – | – | ≤ 0.1 | 1 to 8 (≈ 1.91 to 15.3 µM) | – | – | – | –
O=C(O)c1cn(C2CC2)c2cc(-c3ccc(NC(=O)C(F)(F)F)c([N+](=O)[O-])c3)c(F)cc2c1=O [Example 35] | ≤ 0.1 | ≤ 0.1 | 0.1 to 1 (≈ 0.209 to 2.09 µM) | – | – | – | – | – | –
CC(C)(C)OC(=O)Nc1ccc(-c2cc3c(cc2F)c(=O)c(C(=O)O)cn3C2CC2)cc1[N+](=O)[O-] [Example 40] | – | – | – | – | – | ≥ 50 | ≥ 1 | ≤ 1 | –
Nc1cc(-c2c(F)cc3c(=O)c(C(=O)O)cn(C4CC4)c3c2F)ccc1C(=O)NCC(F)(F)F [Example 43] | 0.1 to 1 (≈ 0.208 to 2.08 µM) | ≤ 0.1 | 0.1 to 1 (≈ 0.208 to 2.08 µM) | – | – | ≥ 20 | ≤ 1 | ≤ 1 | –
Cc1c(-c2ccc(C(=O)NCC(C)(C)C)c(N)c2)c(F)cc2c(=O)c(C(=O)O)cn(C3CC3)c12 [Example 49] | – | – | – | ≤ 0.1 | 1 to 8 (≈ 2.15 to 17.2 µM) | – | – | – | –
Nc1cc(-c2cc3c(cc2F)c(=O)c(C(=O)O)cn3C2CC2)ccn1 [Example 50] | ≤ 0.1 | ≤ 0.1 | 0.1 to 1 (≈ 0.295 to 2.95 µM) | – | – | – | – | – | –
Nc1ccc(-c2c(F)cc3c(=O)c(C(=O)NO)cn(C4CC4)c3c2Cl)cc1[N+](=O)[O-] [Example 64] | – | – | – | – | – | ≥ 20 | ≥ 1 | ≤ 1 | –
COc1cc(-c2cc3c(cc2F)c(=O)c(C(=O)O)cn3C2CC2)ccc1NC(=O)C(C)(C)C [Example 65] | – | – | – | – | – | ≥ 50 | ≥ 1 | ≤ 1 | –
CCCCCCCNS(=O)(=O)c1ccc(-c2cc3c(cc2F)c(=O)c(C(=O)O)cn3C2CC2)cc1 [Example 101] | – | – | – | – | – | ≥ 50 | ≥ 1 | ≤ 1 | –
CCCCCCCNS(=O)(=O)c1ccc(-c2cc3c(cc2F)c(=O)c(C(=O)O)cn3C2CC2)cc1C(F)(F)F [Example 132] | – | – | – | – | – | ≥ 20 | ≥ 1 | ≤ 1 | –
COc1c(-c2ccc(N)c([N+](=O)[O-])c2)c(F)cc2c(=O)c(C(=O)NO)cn(C3CC3)c12 [Example 138] | – | – | – | – | – | ≥ 50 | ≥ 1 | ≤ 1 | –
COc1c(N2C[C@@H]3CCCN[C@@H]3C2)c(F)cc2c(=O)c(C(=O)O)cn(C3CC3)c12 [Moxifloxacin, reference compound] | ≤ 0.1 | ≤ 0.1 | 1 to 8 (≈ 2.49 to 19.9 µM) | ≤ 0.1 | > 8 | – | – | – | –
